Values quoted from earlier work in patent publication US11179330B2, “Doxepin oral transmucosal film” (Xiamen LP Pharmaceutical Co., Ltd., priority 2019, dated 2021).
Where a name gives a salt, the structure may show the parent alone.

Assays:
[1] = patients

Structure (SMILES)	sleep maintained [1] [h]	mean oral bioavailability
CN(C)CCC=C1c2ccccc2COc2ccccc21 [Doxepin hydrochloride]	7 to 8	–
CN(C)CCC=C1c2ccccc2COc2ccccc21 [Doxepin]	–	13-45%
